Data on 5 compounds can be found in US20090253719A1, “CRYSTALLINE SALT FORMS OF ANTIFOLATE COMPOUNDS AND METHODS OF MANUFACTURING THEREOF” (Chelsea Therapeutics, Inc., priority 2008, published 2009).

By EC50 is commonly meant the concentration at which the effect is half-maximal. A high value points to weaker potency.

How the values of data set [1] were obtained:
A salt screen of this compound was conducted with various pharmaceutically acceptable counterions to analyze aqueous solubility of the formed salts. Formed solids suspected of forming salts were analyzed by X-ray powder diffraction (XRPD).

Data set [2] concerns CCRF-CEM cells. As to the kind of experiment: Growth inhibition of CCRF-CEM cells, continuous (120 hr) drug exposure. It is filed as cell-based. Conditions: Homo sapiens, continuous 120 hr exposure. Here is the method: The human T-lymphoblastic leukemia cell line CCRF-CEM (described in Foley G F, et al., Cancer 1965; 18:522-9) was cultured as described in McCloskey D E, et al., J Biol Chem 1991; 266:6181-7 (both of which are incorporated herein by reference in their entirety) and verified to be negative for Mycoplasma contamination (Mycoplasma Plus PCR primers, Stratagene, La Jolla, Calif.).

Data set [3] is described as follows: Plasma concentration after oral L- or D-CH-1504 in non-fasted female Lewis rats. It is filed as in vivo. The procedure: L- or D-CH-1504 was administered once orally to non-fasted female Lewis rats at a dose of 10 mg/kg (vehicle: 0.11% carboxymethylcellulose/0.45% TWEEN 80, formulation: suspension). About 750 μL of blood was collected from the jugular vein at 1 and 3 hours after administration. And then, whole of blood was collected from the femoral vein under diethyl ether anesthesia at 6 hours after administration. The collected blood was immediately centrifuged to obtain a plasma sample. L- and D-CH-1504 were extracted from the plasma by solid-phase extraction and were then determined with a LC/MS/MS.

Data set [4] can be described thus: Hygroscopicity study (storage at controlled relative humidity). Conditions: 75% relative humidity for five days. It is filed as physicochemical. The text has this: Hygroscopicity and approximate solubility in aqueous and buffered solutions of ammonium, besylate, calcium, esylate, sulfate, HCl, mesylate, napsylate, potassium, disodium, and tosylate salts were compared. In the hygroscopicity study, the salts were subjected to 75% relative humidity for five days.
An amorphous form was also generated. […] As described above, disodium salt Form A was a crystalline solid obtained using a water/IPA system or a water/acetone system. […] Heating was continued to achieve a temperature of 90° C. Crystallinity was not regained upon cooling to ambient.

The structures appear in SMILES notation.

As for `C=C(CC(NC(=O)c1ccc(CCc2ccc3nc(N)nc(N)c3c2)cc1)C(=O)O)C(=O)O` (racemic) [CH-1504, 2-{4-[2-(2,4-diamino-quinazolin-6-yl)-ethyl]-benzoylamino}-4-methylene-pentanedioic acid], in data set [1], the “solubility of free acid form” value is “poor solubility”. The compound also had an EC50 in data set [2] of 8.6 nM. Moreover, the isomerization in vivo result in data set [3] (by 6 hours after administration of each enantiomer, all samples) was “could not be confirmed”.

Turning to `C=C(C[C@@H](NC(=O)c1ccc(CCc2ccc3nc(N)nc(N)c3c2)cc1)C(=O)O)C(=O)O` [D-CH-1504], a half-maximal effect in data set [2] (EC50) was put at 29 nM. For the same compound, the “Plasma conc. of D-CH-1504” value in data set [3] (1 h after 10 mg/kg oral, non-fasted female Lewis rats, individual animals) was 11.0 ng/mL. Besides, the concentration at 3 h in data set [3] (female, Lewis, rat, plasma, oral, 10 mg/kg, 3 h after 10 mg/kg oral, non-fasted female Lewis rats, individual animals, read-out: Plasma conc. of D-CH-1504) stood at 14.3 ng/mL. Besides, the concentration at 6 h in data set [3] (female, Lewis, rat, plasma, oral, 10 mg/kg, 6 h after 10 mg/kg oral, non-fasted female Lewis rats, individual animals, read-out: Plasma conc. of D-CH-1504) amounted to 8.34 ng/mL.

For the compound `C=C(C[C@H](NC(=O)c1ccc(CCc2ccc3nc(N)nc(N)c3c2)cc1)C(=O)O)C(=O)O` [L-CH-1504, (S)-2-{4-[2-(2,4-diamino-quinazolin-6-yl)-ethyl]-benzoylamino}-4-methylene-pentanedioic acid], in data set [2], the EC50 is 6.1 nM. In other words, the single-digit nanomolar range.

In the case of `CN(Cc1cnc2nc(N)nc(N)c2n1)c1ccc(C(=O)NC(CCC(=O)O)C(=O)O)cc1` (stereo not shown) [MTX, methotrexate, reference compound], the EC50 in data set [2] was found to be 15 nM.

Take `C=C(CC(NC(=O)c1ccc(CCc2ccc3nc(N)nc(N)c3c2)cc1)C(=O)O)C(=O)O.O=S(=O)(O)c1ccc2ccccc2c1` (stereo not shown) [napsylate salt]: the hygroscopicity study outcome in data set [4] is “remained unchanged”.
